Experiment [1] deals with T1, sTAAR365 D3.32E (Petromyzon marinus, UniProt A0A678XMK4, D114E).
T1 sequence (A0A678XMK4 1-365 D114E): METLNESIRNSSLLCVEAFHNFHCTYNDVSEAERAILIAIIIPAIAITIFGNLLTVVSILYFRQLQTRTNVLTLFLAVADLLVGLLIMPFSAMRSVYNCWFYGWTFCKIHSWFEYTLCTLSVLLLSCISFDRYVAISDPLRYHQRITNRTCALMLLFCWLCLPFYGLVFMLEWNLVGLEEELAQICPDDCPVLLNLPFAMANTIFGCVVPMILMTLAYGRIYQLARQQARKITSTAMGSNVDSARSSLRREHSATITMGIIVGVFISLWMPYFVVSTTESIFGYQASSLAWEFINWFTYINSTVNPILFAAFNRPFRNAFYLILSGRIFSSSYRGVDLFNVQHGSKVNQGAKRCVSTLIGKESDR

Experiment [2] has as its target T1, sTAAR365 D3.32E. The experiment is described as follows: cell-based.
The target in the next experiment is T2, sTAAR365 Y6.51L (Petromyzon marinus, UniProt A0A678XMK4, Y272L).
T2 sequence (A0A678XMK4 1-365 Y272L): T1 sequence (A0A678XMK4 1-365 D114E) with E114D, Y272L
The experiment in a line: cell-based.

The next experiment deals with T3, sTAAR365 T7.42A (Petromyzon marinus, UniProt A0A678XMK4, T298A).
T3 sequence (A0A678XMK4 1-365 T298A): T1 sequence (A0A678XMK4 1-365 D114E) with E114D, T298A
The experiment in a line: cell-based.

The target of a further experiment is sTAAR365 T7.42S (Petromyzon marinus, UniProt A0A678XMK4, T298S). The experiment in a line: cell-based.
Chain of sTAAR365 T7.42S (A0A678XMK4 whole entry T298S): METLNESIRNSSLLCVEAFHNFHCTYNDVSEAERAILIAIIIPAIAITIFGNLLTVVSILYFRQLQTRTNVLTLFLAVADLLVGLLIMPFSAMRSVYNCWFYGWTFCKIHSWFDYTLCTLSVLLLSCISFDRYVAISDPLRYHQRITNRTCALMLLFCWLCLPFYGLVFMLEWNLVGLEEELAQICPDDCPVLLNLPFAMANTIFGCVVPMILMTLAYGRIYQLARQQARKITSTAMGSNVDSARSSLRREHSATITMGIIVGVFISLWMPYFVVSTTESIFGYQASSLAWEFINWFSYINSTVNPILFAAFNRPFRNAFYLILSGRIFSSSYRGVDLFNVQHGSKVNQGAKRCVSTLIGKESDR
The next experiment has as its target T4, sTAAR365 T7.42V (Petromyzon marinus, UniProt A0A678XMK4, T298V).
T4 sequence (A0A678XMK4 1-365 T298V): T1 sequence (A0A678XMK4 1-365 D114E) with E114D, T298V
The experiment in a line: cell-based.

Another experiment deals with sTAAR365 E7.36Q (Petromyzon marinus, UniProt A0A678XMK4, E292Q). The experiment in a line: cell-based.
Chain of sTAAR365 E7.36Q (A0A678XMK4 whole entry E292Q): as the sequence (A0A678XMK4 whole entry T298S) above, with E292Q, S298T counted along it
The target in a further experiment is sTAAR365 Y7.43A (Petromyzon marinus, UniProt A0A678XMK4, Y299A). The experiment in a line: cell-based.
Chain of sTAAR365 Y7.43A (A0A678XMK4 whole entry Y299A): as the sequence (A0A678XMK4 whole entry T298S) above, with S298T, Y299A counted along it
For the next experiment, the target named is sTAAR365 Y7.43F (Petromyzon marinus, UniProt A0A678XMK4, Y299F). The experiment is described as follows: cell-based.
Chain of sTAAR365 Y7.43F (A0A678XMK4 whole entry Y299F): as the sequence (A0A678XMK4 whole entry T298S) above, with S298T, Y299F counted along it
The target of a further experiment is sTAAR365 Y7.43L (Petromyzon marinus, UniProt A0A678XMK4, Y299L). The experiment in a line: cell-based.
Chain of sTAAR365 Y7.43L (A0A678XMK4 whole entry Y299L): as the sequence (A0A678XMK4 whole entry T298S) above, with S298T, Y299L counted along it
The target of a further experiment is sTAAR365 W7.40F (Petromyzon marinus, UniProt A0A678XMK4, W296F). The experiment in a line: cell-based.
Chain of sTAAR365 W7.40F (A0A678XMK4 whole entry W296F): as the sequence (A0A678XMK4 whole entry T298S) above, with W296F, S298T counted along it
A further experiment concerns the target T5, sTAAR365 W7.40Y (Petromyzon marinus, UniProt A0A678XMK4, W296Y).
T5 sequence (A0A678XMK4 1-365 W296Y): T1 sequence (A0A678XMK4 1-365 D114E) with E114D, W296Y
The experiment in a line: cell-based.

Positions count from the first letter of the chain named.

As a reminder, the EC50 is the midpoint of the concentration-response curve. As for `NCCCCCN` [cadaverine], on sTAAR365 D3.32E [1], the “Hill slope of concentration-response curve” value is on record as 1.44. Besides, the “increase of EC50 vs wild-type sTAAR365” value at sTAAR365 D3.32E [1] was “three”. For the same compound, the EC50 was 14 ± 0.5 µM on sTAAR365 D3.32E [2]; over 100 µM on sTAAR365 Y6.51L; 31 ± 24 µM on sTAAR365 T7.42A; 0.126 ± 0.013 µM at sTAAR365 T7.42S; 9 ± 2 µM on sTAAR365 T7.42V; 0.06 ± 0.011 µM at sTAAR365 E7.36Q. Further, the EC50 on sTAAR365 Y7.43A turned out to be 144 ± 11 µM; on sTAAR365 Y7.43F, 2 ± 0.2 µM; on sTAAR365 Y7.43L it was 1 ± 0.2 µM; at sTAAR365 W7.40F, 0.223 ± 0.037 µM; at sTAAR365 W7.40Y it was 0.127 ± 0.041 µM.

Turning to `NCCCCN` [putrescine], the “increase of EC50 vs wild-type sTAAR365” value at sTAAR365 D3.32E [1] is listed as “one”. Further, the EC50 is over 500 µM on sTAAR365 D3.32E [2]; over 500 µM on sTAAR365 T7.42A; over 500 µM at sTAAR365 T7.42V; over 1000 µM on sTAAR365 Y7.43F; over 1000 µM on sTAAR365 Y7.43L; over 500 µM on sTAAR365 W7.40F. Moreover, the EC50 on sTAAR365 W7.40Y is over 500 µM.

Consider `NCCCNCCCCNCCCN` [spermine], for which the EC50 was over 500 µM at sTAAR365 Y6.51L, 64 ± 7 µM on sTAAR365 T7.42S, over 500 µM on sTAAR365 E7.36Q and 530 ± 259 µM at sTAAR365 W7.40Y.
